We go through 64 compounds from a melting point compilation (Tetko et al.; mined from patent text by program, amines drawn as free bases though some values may be those of a salt).

As usually defined, the melting point is the temperature of the solid-liquid transition. Turning to `O=C(c1cc2cc3[nH]c(=O)oc3cc2[nH]1)N1CCC(OCc2ccccc2)CC1`, the melting point was in the range of 258 to 261 °C.

`O=C(CCl)NC1(c2ccccc2Cl)C(=O)Nc2ccc(Cl)cc21` (centres undefined) gave a melting point of 230 °C.

On to `O=C1c2ccccc2C(=O)N1CC(=O)N1c2ccccc2N(Cc2ccccc2)C(=O)[C@H]2CCCC[C@H]21` (relative stereo), for which the melting point was in the range of 241 to 242 °C.

As to `CON1C(C)(C)CC(OC(=O)c2ccccc2)CC1(C)C`, the melting point was in the range of 67 to 68 °C.

Compound `CC(C)N1CCN(c2ccc(C(=O)NCCCCCCCCCCCCO[N+](=O)[O-])cn2)CC1` registered a melting point of 56 to 58 °C.

`O=c1[nH]c2c(o1)-c1ccncc1CC2`: the melting point is 290 to 292 °C.

In turn, `Cc1nnc(N2CCC(N3c4ccccc4N(C)S3(=O)=O)CC2)n1-c1ccc(Cl)cc1` returned a melting point of 210 to 212 °C.

`Nc1ccc(C(=O)Nc2ccc(N)cc2Cl)cc1` displayed a melting point of 194 to 197 °C.

Turning to `COC(=O)Cc1c(O)nc(C)nc1O`, the melting point was greater than 200 °C.

In turn, `COc1cc2c(cc1OC)[C@@H]1CN(C)CC[C@@H]1N=C2c1cccc(C(F)(F)F)c1` (relative stereo) returned a melting point of 215 to 217 °C.

The compound `CCCCCCCCCCC[C@@H](O)CC(=O)OCC(=O)c1ccc(Br)cc1` yielded a melting point of 109 to 110 °C.

Turning to `Cc1ncccc1CC(=NC#N)NC(NC(=O)Cc1ccc2ncccc2c1)C(C)(C)C` (centres undefined), the melting point lay in the range of 132 to 134 °C.

`Cc1ccc2[nH]c(=O)cc(CCCl)c2c1` gave a melting point of 215 to 216 °C.

As for `O=c1cc(-c2ccccc2F)oc(N2CCOCC2)c1`, the melting point lay within 137 to 138 °C.

Regarding `CCc1c(O)c(C(C)=O)cc2c1OC(C)(C)CC2C` (centres undefined), the melting point is 104 to 106 °C.

In turn, `CS(=O)(=O)c1ccc(-n2nc(C(F)(F)F)cc2-c2nc3ccc(F)cc3s2)cc1` registered a melting point of 194 to 196 °C.

Compound `CC1N=C2N(Cc3ccc(Cl)cc3)c3[nH]cnc3C(=O)N2C1C` (centres undefined) displayed a melting point of 252 to 254 °C.

The compound `CC(C)(C)c1ccc(C(=O)Nc2cn3cc(Br)ccc3n2)cc1` registered a melting point of 249 to 250 °C.

On to `CC1CC(NC(=O)C(F)(F)F)=NN1c1ccc(Cl)c(Cl)c1` (centres undefined), for which the melting point fell in the range of 150 to 152 °C.

In turn, `CC1(CO)OCC2(CO1)COC(C)(CO)OC2` (centres undefined) yielded a melting point of 127 to 128 °C.

Turning to `COc1ccc2c(c1)OCC(c1ccccc1)C2c1ccc(OCCN2CCCC2)cc1` (centres undefined), the melting point is 113 to 114 °C.

`Cn1cc(C(=O)NCc2ccc(Cl)cc2)c(=O)c2cc(CN3CC[C@@H](O)C3)oc21`: the melting point fell in the range of 189 to 190 °C.

Consider `CCC1(CC(=O)O)OCCc2c1[nH]c1c(OCC(F)(F)F)cccc21` (centres undefined), for which the melting point fell in the range of 126 to 129 °C.

With `CCc1ccc(-c2ccc(C(=O)Nc3ccc4cc(CN5CCCC5)cnc4c3C)cc2)cc1`, the melting point was in the range of 189 to 190 °C.

With `COc1ccc(C(=O)C=Cc2cc(O)c(O)c([N+](=O)[O-])c2)cc1`, the melting point was 222 to 228 °C.

`CC(C)n1nc(-c2c(OCCN(C)C)nc(N)nc2-c2ccccc2)ccc1=O` registered a melting point of 130 to 132 °C.

`CC(CC(=O)O)C(=O)c1ccc(-n2ccnc2)cc1` (centres undefined): the melting point is 181 to 182 °C.

`OCC(Nc1nc(-c2ccc(Br)cc2)cs1)C(F)(F)F` (centres undefined): the melting point is 133 to 134 °C.

The compound `NC(=O)c1cncc(OCC(O)CO)c1` (centres undefined) registered a melting point of 197 to 199 °C.

As for `OCc1coc(Cc2ccc(F)cc2)c1`, the melting point is 45 to 47 °C.

Take `Cc1cc(C)c(C)c(COc2cccc(-c3ccoc3C(=O)NNC(=O)c3ccc(O)c(C#N)c3)c2)c1C`: the melting point fell in the range of 210 to 211 °C.

`CNC(=O)c1cccc(NC(=O)Cc2cccc(F)c2)c1`: the melting point was in the range of 147 to 148 °C.

On to `CS(=O)(=O)c1cccc(C/C=C(/F)CN2C(=O)c3ccccc3C2=O)c1`, for which the melting point fell in the range of 124 to 126 °C.

In turn, `NCCc1ccc(Nc2ncc3c(n2)-c2ccccc2C(c2cccc(Br)c2)C3)cc1` (centres undefined) registered a melting point of 115 to 117 °C.

As for `CC(=O)N1CCc2nc(C)nc(-c3ccc(Cl)cc3)c2C1`, the melting point lay within 139 to 141 °C.

For `NCC1Cc2cccc(-c3cccc4ccccc34)c2O1` (centres undefined), the melting point was in the range of 120 to 124 °C.

For the compound `COc1cc(CN2CCN(c3ccc(C(=O)NC4CC4)cc3Cl)CC2)cc2c1OC(C)C(=O)N2` (centres undefined), the melting point was found to be 226 °C.

On to `CC1CC(=O)N(c2ccncc2)C1=O` (centres undefined), for which the melting point lay in the range of 119 to 120 °C.

`CC(C)C(=O)C(C)(C)SN(C)C(=O)ON=C1SC(C)(C)C(=O)N1C`: the melting point was 112 to 114 °C.

On to `CCCn1c(=O)c2[nH]c(C3CC4CCC3C4)nc2n(CCC)c1=O` (centres undefined), for which the melting point is 136 to 138 °C.

The compound `COC(=O)[C@H]1CN(CCO)CC[C@H]1NC(=O)OCc1ccccc1` had a melting point of 73 °C.

Regarding `CC1(C)CC(NC(=O)NC23CC4CC(CC(C4)C2)C3)CC(C)(C)C1=O`, the melting point was in the range of 234 to 238 °C.

Turning to `CCCCC1NC(C(=O)O)Cc2c1[nH]c1ccccc21` (centres undefined), the melting point is 204 to 205 °C.

With `CC(C)CN(C)c1ccccc1CS(=O)c1nc2ncccc2[nH]1` (centres undefined), the melting point was in the range of 116 to 118 °C.

As for `Cn1c(=O)cn[nH]c1=O`, the melting point amounted to 173 °C.

`COC(=O)[C@H](c1ccccc1Cl)N1CCc2sc(OC(=O)N(C)C)cc2C1`: the melting point lay in the range of 96 to 98 °C.

In turn, `COc1ccc(CN2C(=O)[C@@H](N3C(=O)c4ccccc4C3=O)[C@H]2CCc2ccccc2)c(OC)c1` (relative stereo) had a melting point of 148 to 150 °C.

`CN1C(=O)Cc2cc(C3=NNC(=O)C4CC34)ccc21` (centres undefined) gave a melting point of 265 to 267 °C.

The compound `Cc1ccnc(NC(=O)C2=C(O)c3ccc4ccccc4c3S(=O)(=O)N2C)c1` had a melting point of 221 °C.

Turning to `CCOC(=O)C(S)CC(=O)c1ccc(Oc2ccccc2)cc1` (centres undefined), the melting point was in the range of 46 to 47.5 °C.

Turning to `CS(=O)(=O)Nc1cc(NC(=O)CCl)ccc1Oc1ccccc1`, the melting point fell in the range of 126 to 128 °C.

As for `CSc1ncnn1C[C@]1(c2ccc(F)cc2F)O[C@@H]1c1ccccc1Cl` (relative stereo), the melting point fell in the range of 116 to 117 °C.

In turn, `OCc1cc(F)c(CO)cc1F` registered a melting point of 268 to 271 °C.

As for `CC(C)(C)Nc1nc2ccc(Cl)cc2c2nc(-c3ccco3)nn12`, the melting point was greater than 330 °C.

As for `Cc1cccc(Oc2nc(-c3c[nH]nc3C)cs2)n1`, the melting point fell in the range of 138 to 139 °C.

In the case of `CCCCNc1cc(C(=O)O)cc(S(N)(=O)=O)c1Oc1cccc(NC(C)=O)c1`, the melting point lay in the range of 235 to 240 °C.

Compound `Cc1ccc(C(=O)Nc2ccc(C)c(-c3nc(OC(C)C)nc4c3CNC(=O)N4c3c(F)cccc3F)c2)cc1F` returned a melting point of 254 to 255 °C.

For `CN(C)CCN(C(=O)OC(C)(C)C)C1=NCC(=O)N(C)c2ccccc21`, the melting point is less than 35 °C.

As to `CC(C)(C)OC(=O)NC1Cc2ccccc2C(F)C1O` (centres undefined), the melting point was 98 to 99 °C.

`OCCNC(=S)NC(=Nc1ccccc1)c1ccccc1` had a melting point of 144 to 145 °C.

The compound `CN(C)C(c1ccccc1)(c1cccc(Oc2ccccc2)c1)C1CCCCC1(O)Cc1ccccc1` (centres undefined) had a melting point of 189 to 190 °C.

Compound `O=C1Cc2ccc(N3C(=O)C4=C(CCCC4)C3=O)cc2N1` gave a melting point of 225 to 226 °C.

With `Cc1ccccc1C(=O)N(C)c1ccc(C(=O)O)cc1`, the melting point lay in the range of 187 to 190 °C.

With `O=C(c1ccc(F)cc1)C1CCN(CCN(C(=O)c2ccc([N+](=O)[O-])cc2)c2ccccc2C(F)(F)F)CC1`, the melting point lay within 157 to 158 °C.
